# Like-named read-outs stand apart in the source and are kept apart here.
# How the values were obtained:
# Format in all cases: cell-based, Staphylococcus aureus
# [1] = system: S. aureus ATCC 25923; test: Antibacterial activity, pre-exposure (planktonic cells and biofilm formation); details: for MIC: Staphylococcus aureus, ATCC25923, read-out: MIC (S. aureus); for Initial screening result (active = at least 60% inhibition of planktonic cells and biofilm formation): 50 μM, S. aureus
# Description: (§1) The antimicrobial activity was assessed in a similar way for the initial screening and the dose–response evaluation against different bacterial strains. With the exception of the post-exposure experiment, the compounds were added to the wells along with the bacteria to test the ability of compounds to prevent bacterial growth and biofilm formation (pre-exposure). The compounds were diluted in DMSO and plated directly in 96-well plates before adding the bacterial culture, and plates were incubated for 18 h under aerobic conditions at 37 °C with shaking (220 rpm). The antibacterial activity of the compounds was assessed on planktonic cells and biofilms separately using two different measurements for each: optical density (turbidity) and resazurin reduction (viability) on planktonic cells and resazurin followed by a crystal violet staining assay (total biomass) on biofilms, as described in the following sections.
# (§2) The resazurin staining was performed according to the protocol previously optimized with a few modifications.[46] Briefly, the planktonic solution was first transferred into a new 96-well plate and the OD of the planktonic solution was measured using a Varioskan LUX Multimode microplate reader (Thermo Scientific, Vantaa, Finland). Then, 10 μL of a 400 μM resazurin (R7017, Sigma-Aldrich, St. Louis, MO) diluted in phosphate-buffered saline (PBS) (Thermo Fisher Scientific, MA) was added to the wells (for a final resazurin concentration of 20 μM). The plate was incubated in the dark with shaking (220 rpm) for about 3–10 min at room temperature with S. aureus and A. baumannii (until the bacteria controls turned pink) or for 20 min at 37 °C with P. aeruginosa. Fluorescence was measured at λex = 560 nm and λem = 590 nm using the top optics of the Varioskan LUX Multimode microplate reader. The planktonic plate was then discarded. The original challenge plate containing the biofilms was washed once with PBS, and 200 μL of a 20 μM resazurin solution was added to the wells. The plate was incubated in the dark at 37 °C with shaking (220 rpm) for 30 min with S. aureus, 60 min with A. baumannii, and 90 min with P. aeruginosa. Fluorescence was measured as described for the planktonic solution. The biofilms were next treated with crystal violet staining.
# (§3) After removing the resazurin solution from the plate, biofilms were fixed with ethanol 100% for 15 min at room temperature. Ethanol was then removed, and the biofilms were left to air-dry completely at RT. Crystal violet, diluted to 1:100 in deionized water from the 2.3% commercial solution (HT90132, Sigma-Aldrich, St. Louis, MO), was added to the wells and, after a 5 min incubation with the dye, the biofilms were washed twice with deionized water and left to air-dry for about 10 min. The dye was solubilized in ethanol 100% for 1 h, and absorbance was measured at 595 nm using a Multiskan Sky microplate spectrophotometer (Thermo Scientific, Vantaa, Finland).
# [2] = system: S. aureus ATCC 12598; test: Antibacterial activity, pre-exposure; details: S. aureus ATCC 12598, pre-exposure, 50 µM, ± SD; for inhibition at 50 µM: Staphylococcus aureus, ATCC12598
# Description: as §1, §2, §3
# [3] = system: S. aureus P2; test: Antibacterial activity, pre-exposure; details: S. aureus P2, pre-exposure, 50 µM, ± SD; for inhibition at 50 µM: Staphylococcus aureus
# Description: as §1, §2, §3
# [4] = read-out: Average inhibition %, biofilms biomass
# [5] = read-out: Average inhibition %, planktonic cells turbidity
Structure (SMILES),MIC [1] [µM],further results
"NC(CO)(CO)CCc1ccc(OCc2ccc3ccc(Cl)cc3n2)cc1 [Compound 28, 2-Amino-2-[4-[(7-chloroquinolin-2-yl)methoxy]phenethyl]propane-1,3-diol]",> 100,
"CC1(C)S[C@@H]2[C@H](NC(=O)Cc3ccccc3)C(=O)N2[C@H]1C(=O)O [Penicillin-G, reference compound]",,"Average inhibition %, biofilms viability [2]: 97.5 ± 1.5%; Average inhibition %, planktonic cells viability [2]: 99.7 ± 0%; inhibition at 50 µM [2, 4]: 95.8 ± 1%; inhibition at 50 µM [2, 5]: 99.7%; Average inhibition %, biofilms viability [3]: 9.5 ± 9.8%; Average inhibition %, planktonic cells viability [3]: 14.9 ± 10.3%; inhibition at 50 µM [3, 4]: 17.4 ± 13.2%; inhibition at 50 µM [3, 5]: 12.2 ± 14.5%"
"NC(CO)(CO)CCc1ccc2ccccc2n1 [Compound 33, 2-Amino-2-[2-(quinolin-2-yl)ethyl]propane-1,3-diol]",> 100,
"COc1ccc(-c2ccc(CCC(N)(CO)CO)cc2)cc1OC [Compound 13, 2-Amino-2-[2-(3′,4′-dimethoxy-[1,1′-biphenyl]-4-yl)ethyl]propane-1,3-diol]",> 100,
"CCCCCCc1ccc(CCC(N)(CO)CO)cc1 [Compound 10, 2-Amino-2-(4-hexylphenethyl)propane-1,3-diol]",100,Initial screening result (active = at least 60% inhibition of planktonic cells and biofilm formation) [1]: only limited activity against S. aureus biofilms
"CCCCCCCCc1ccc(CCC(N)(CO)CO)nc1 [Compound 61, 2-Amino-2-[2-(5-octylpyridin-2-yl)ethyl]propane-1,3-diol]",100,Initial screening result (active = at least 60% inhibition of planktonic cells and biofilm formation) [1]: did not show an inhibitory activity comparable to fingolimod
"NC(CO)(CO)CCc1ccc(Cc2ccccc2)cc1 [Compound 12, 2-Amino-2-(4-benzylphenethyl)propane-1,3-diol]",> 100,
"NC(CO)(CO)CCc1ccc(/C=C/Cc2ccccc2)cc1 [Compound 16, (E)-2-Amino-2-[4-(3-phenylprop-1-en-1-yl)phenethyl]propane-1,3-diol]",> 100,

# More lines, main results first:
MIC [1] [µM],Structure (SMILES),further results
> 100,"NC(CO)(CO)CCc1ccc(OCc2ccccc2)cc1 [Compound 25, 2-Amino-2-[4-(benzyloxy)phenethyl]propane-1,3-diol]",
> 100,"NC(CO)(CO)CCc1ccc(OCc2ccc(C(F)(F)F)cc2)cc1 [Compound 26, 2-Amino-2-[4-[[4-(trifluoromethyl)benzyl]oxy]phenethyl]propane-1,3-diol]",
> 100,"CCCCc1ccc(COc2ccc(CCC(N)(CO)CO)cc2)cc1 [Compound 29, 2-Amino-2-[4-[(4-butylbenzyl)oxy]phenethyl]propane-1,3-diol]",
> 100,"NC(CO)(CO)CCc1ccc(-c2ccc(OCc3ccccc3)cc2)cc1 [Compound 14, 2-Amino-2-[2-[4′-(benzyloxy)-[1,1′-biphenyl]-4-yl]ethyl]propane-1,3-diol]",
> 100,NC(CO)(CO)CCc1ccc(OCc2ccc(C(F)(F)F)nc2)cc1 [Compound 27],
